Literature values in patent US12419901B2, “Prodrugs of deoxynucleosides for treatment of diseases caused by unbalanced nucleotide pools” (UCB BIOSCIENCES, INC., priority 2018, dated 2025).

Tested on: dGK deficient patient derived fibroblasts
Conditions: 50 μM in cell culture medium, quiescent dGK-deficient fibroblasts

Structure (SMILES): Nc1nc2c(ncn2[C@H]2C[C@H](O)[C@@H](CO)O2)c(=O)[nH]1 [dGuo, deoxyguanosine]
- mtDNA depletion (previously demonstrated): sufficient to prevent this depletion
